Laboratory results as given in patent US20100204205A1 (priority 2007, published 2010).
Entries after “also recorded” stand apart in the source; their conditions may differ.

Tests used:
[1] = controlled studies; cited from earlier work
[2] = biological target: reuptake of dopamine (Homo sapiens, UniProt Q01959); conditions: cited from earlier work
[3] = tested on: alpha-1 adrenergic receptors; conditions: cited from earlier work
[4] = tested on: alpha-2 receptors; conditions: cited from earlier work
[5] = biological target: 5HT2A serotonin receptors (Homo sapiens, UniProt P28223); conditions: cited from earlier work
Sequence of 5HT2A serotonin receptors (P28223 whole entry): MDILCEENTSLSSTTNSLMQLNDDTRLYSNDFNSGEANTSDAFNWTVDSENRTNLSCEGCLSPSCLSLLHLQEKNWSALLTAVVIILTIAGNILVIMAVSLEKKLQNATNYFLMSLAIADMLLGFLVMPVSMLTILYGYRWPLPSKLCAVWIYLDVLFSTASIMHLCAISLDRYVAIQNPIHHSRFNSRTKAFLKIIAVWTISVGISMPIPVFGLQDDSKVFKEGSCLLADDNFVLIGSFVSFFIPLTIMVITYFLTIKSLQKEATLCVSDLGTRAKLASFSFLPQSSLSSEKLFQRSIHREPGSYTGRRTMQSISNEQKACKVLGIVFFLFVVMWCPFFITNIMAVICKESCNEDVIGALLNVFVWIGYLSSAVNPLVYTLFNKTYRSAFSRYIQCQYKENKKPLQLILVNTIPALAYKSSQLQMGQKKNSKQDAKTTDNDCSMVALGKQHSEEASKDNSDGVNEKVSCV

[6] = biological target: T1, 5HT3 serotonin receptors (Homo sapiens, UniProt P46098); conditions: cited from earlier work
T1 sequence (P46098 24-478): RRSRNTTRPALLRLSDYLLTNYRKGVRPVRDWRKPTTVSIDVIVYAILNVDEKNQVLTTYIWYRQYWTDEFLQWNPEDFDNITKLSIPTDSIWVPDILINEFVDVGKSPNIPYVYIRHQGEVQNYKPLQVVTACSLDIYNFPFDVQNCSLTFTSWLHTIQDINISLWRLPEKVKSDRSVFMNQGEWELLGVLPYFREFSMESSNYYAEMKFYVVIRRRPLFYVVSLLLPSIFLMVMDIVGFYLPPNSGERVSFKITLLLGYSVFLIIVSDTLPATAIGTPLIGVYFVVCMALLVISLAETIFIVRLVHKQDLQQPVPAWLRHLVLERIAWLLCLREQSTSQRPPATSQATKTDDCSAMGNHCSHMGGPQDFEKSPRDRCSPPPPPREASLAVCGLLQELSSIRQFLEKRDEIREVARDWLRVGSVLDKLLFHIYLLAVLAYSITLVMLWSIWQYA

[7] = tested on: 5HT2 receptors; conditions: cited from earlier work
[8] = Example 1: tolerability study of mirtazapine and betahistine; assay type: in vivo, normal, health subjects; conditions: 6 weeks of therapy, healthy subjects
Procedure: The subjects receive 2 capsules per day, one in the morning and one at bedtime. […] In a different dosage range, the subjects receive 3 capsules per day, one in the morning, one at noon and one at bedtime. […] In a different dosage range, the subjects receive 2 capsules per day, one in the morning and one at bedtime. […] All medications are administered in an over-encapsulated format that ensures blinding of study participants, staff and investigators. All subjects are scheduled to receive a total of 6 weeks of therapy, and are required to return to the clinics after 1, 2, 4 and 6 weeks of therapy. Patients are required to complete paper self-assessments, electronic diary assessments, computer based cognitive testing, as well as vital signs and weight assessments at the clinic visits.

[9] = biological target: histamine H1 receptors (Homo sapiens, UniProt P35367); conditions: cited from earlier work
Sequence of histamine H1 receptors (P35367 whole entry): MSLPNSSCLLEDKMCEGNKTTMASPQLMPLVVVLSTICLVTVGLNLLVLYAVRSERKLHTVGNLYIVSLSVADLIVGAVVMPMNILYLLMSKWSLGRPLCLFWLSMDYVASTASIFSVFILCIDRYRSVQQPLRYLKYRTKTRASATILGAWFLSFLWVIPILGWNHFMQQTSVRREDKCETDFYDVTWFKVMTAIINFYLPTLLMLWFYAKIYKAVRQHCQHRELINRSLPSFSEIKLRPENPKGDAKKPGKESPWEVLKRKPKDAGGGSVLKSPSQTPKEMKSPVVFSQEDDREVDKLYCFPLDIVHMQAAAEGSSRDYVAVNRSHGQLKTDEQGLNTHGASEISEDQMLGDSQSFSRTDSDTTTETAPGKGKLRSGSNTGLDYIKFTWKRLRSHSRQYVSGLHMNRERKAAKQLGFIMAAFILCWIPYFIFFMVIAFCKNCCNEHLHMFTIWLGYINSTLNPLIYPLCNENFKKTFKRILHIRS

[10] = biological target: T2, 5HT2C serotonin receptors (Homo sapiens, UniProt P28335); conditions: cited from earlier work
T2 sequence (P28335 33-458): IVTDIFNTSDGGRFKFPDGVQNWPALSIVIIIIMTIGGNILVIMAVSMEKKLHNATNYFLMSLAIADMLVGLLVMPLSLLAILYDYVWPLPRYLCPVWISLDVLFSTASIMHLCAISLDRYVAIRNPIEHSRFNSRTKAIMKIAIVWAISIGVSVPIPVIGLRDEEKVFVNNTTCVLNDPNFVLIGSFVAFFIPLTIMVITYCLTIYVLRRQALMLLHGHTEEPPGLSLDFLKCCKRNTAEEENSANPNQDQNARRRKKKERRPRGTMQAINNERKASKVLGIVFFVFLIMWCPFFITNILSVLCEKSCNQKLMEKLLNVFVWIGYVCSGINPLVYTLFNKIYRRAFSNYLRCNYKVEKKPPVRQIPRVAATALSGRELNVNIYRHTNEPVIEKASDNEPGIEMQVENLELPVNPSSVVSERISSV

[11] = biological target: reuptake of 5HT (Homo sapiens, UniProt P31645); conditions: cited from earlier work
Sequence of reuptake of 5HT (P31645 whole entry): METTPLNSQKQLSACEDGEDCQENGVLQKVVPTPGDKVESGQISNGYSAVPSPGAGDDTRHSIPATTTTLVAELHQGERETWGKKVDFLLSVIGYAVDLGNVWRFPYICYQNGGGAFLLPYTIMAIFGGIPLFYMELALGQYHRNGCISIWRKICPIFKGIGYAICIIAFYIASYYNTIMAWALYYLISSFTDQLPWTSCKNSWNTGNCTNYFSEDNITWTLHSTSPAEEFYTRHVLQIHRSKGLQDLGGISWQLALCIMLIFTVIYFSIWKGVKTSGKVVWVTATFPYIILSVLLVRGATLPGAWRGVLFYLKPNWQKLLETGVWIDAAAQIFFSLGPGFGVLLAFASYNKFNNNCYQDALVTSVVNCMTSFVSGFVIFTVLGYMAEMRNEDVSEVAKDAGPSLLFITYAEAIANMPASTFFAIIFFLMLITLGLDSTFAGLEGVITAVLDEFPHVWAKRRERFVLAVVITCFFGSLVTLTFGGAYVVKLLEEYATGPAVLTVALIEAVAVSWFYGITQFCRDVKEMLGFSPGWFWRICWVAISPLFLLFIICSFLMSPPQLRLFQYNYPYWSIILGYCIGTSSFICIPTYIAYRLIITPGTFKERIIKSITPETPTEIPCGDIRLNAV

[12] = biological target: T3, 5HT1A receptors (Homo sapiens, UniProt P08908); conditions: cited from earlier work
T3 sequence (P08908 1-422): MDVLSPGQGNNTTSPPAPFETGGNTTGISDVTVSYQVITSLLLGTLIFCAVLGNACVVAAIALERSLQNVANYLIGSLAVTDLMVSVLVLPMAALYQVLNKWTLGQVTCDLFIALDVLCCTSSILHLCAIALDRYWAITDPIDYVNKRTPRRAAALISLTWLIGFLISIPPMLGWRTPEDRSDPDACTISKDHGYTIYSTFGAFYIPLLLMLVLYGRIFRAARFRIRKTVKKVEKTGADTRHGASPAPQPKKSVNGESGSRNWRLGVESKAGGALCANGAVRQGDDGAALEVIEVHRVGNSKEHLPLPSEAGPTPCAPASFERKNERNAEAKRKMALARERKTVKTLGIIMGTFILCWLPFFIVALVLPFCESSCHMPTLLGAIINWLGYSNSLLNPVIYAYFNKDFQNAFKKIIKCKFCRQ

[13] = biological target: 5HT1B receptors (Homo sapiens, UniProt P28222); conditions: cited from earlier work
Sequence of 5HT1B receptors (P28222 whole entry): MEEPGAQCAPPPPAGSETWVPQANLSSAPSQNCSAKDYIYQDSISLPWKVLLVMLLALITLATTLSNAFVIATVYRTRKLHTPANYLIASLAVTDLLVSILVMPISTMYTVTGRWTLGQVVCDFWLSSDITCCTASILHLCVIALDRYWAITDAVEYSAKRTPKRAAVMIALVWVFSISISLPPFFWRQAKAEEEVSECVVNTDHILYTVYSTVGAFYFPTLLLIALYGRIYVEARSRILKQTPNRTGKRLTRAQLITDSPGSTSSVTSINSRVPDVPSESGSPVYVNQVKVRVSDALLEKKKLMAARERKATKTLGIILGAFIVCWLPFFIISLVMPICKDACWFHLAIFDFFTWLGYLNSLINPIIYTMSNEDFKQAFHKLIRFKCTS

[14] = biological target: norepinephrine reuptake (Homo sapiens, UniProt P23975); conditions: cited from earlier work
Sequence of norepinephrine reuptake (P23975 whole entry): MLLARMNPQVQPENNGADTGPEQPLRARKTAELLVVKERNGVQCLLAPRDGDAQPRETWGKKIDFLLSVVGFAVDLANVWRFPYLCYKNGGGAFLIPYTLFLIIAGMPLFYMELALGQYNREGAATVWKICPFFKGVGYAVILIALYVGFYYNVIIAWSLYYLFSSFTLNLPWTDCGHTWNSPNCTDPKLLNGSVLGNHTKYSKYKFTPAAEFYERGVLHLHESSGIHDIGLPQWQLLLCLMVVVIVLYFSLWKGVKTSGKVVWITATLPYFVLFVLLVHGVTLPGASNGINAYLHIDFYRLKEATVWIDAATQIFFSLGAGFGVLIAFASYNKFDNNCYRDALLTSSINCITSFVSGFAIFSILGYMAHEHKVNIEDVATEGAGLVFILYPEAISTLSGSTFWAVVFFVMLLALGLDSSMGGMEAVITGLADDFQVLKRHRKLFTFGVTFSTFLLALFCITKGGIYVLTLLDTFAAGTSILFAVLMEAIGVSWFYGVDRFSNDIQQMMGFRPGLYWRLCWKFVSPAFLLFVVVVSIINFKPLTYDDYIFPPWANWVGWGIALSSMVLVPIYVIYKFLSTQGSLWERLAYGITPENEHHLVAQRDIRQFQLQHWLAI

[15] = tested on: muscarinic cholinergic receptors; conditions: cited from earlier work
[16] = administered IP or IV; cited from earlier work
[17] = in vivo; cited from earlier work

Sequence of reuptake of dopamine (Q01959 whole entry): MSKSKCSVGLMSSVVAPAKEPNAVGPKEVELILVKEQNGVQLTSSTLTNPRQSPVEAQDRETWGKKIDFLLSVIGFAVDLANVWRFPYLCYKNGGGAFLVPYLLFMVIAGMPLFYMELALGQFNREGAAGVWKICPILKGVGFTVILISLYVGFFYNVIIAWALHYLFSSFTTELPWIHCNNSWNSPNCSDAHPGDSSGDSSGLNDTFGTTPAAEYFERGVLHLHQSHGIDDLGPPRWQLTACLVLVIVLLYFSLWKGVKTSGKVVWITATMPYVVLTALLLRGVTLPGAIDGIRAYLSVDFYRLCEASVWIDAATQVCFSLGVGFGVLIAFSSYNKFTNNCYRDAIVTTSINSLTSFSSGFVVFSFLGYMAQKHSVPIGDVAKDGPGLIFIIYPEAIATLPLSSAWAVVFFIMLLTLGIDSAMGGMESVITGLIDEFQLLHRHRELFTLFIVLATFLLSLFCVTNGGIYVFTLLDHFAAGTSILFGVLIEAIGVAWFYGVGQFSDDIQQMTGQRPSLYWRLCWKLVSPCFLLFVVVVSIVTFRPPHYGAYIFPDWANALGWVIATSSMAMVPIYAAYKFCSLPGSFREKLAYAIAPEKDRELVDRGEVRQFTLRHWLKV

| SMILES | appetite increase reported, share of patients [1] [%] | weight gain of greater than or equal to 7% of body weight, share of patients [1] [%] | effect on the reuptake of dopamine [2] | antagonist activity at alpha-1 adrenergic receptors [3] | antagonist activity at central alpha-2 receptors [4] | antagonist activity at 5HT2A serotonin receptors [5] | antagonist activity at 5HT3 serotonin receptors [6] | antagonist activity at 5HT2 receptors [7] | side effects [8] | antagonist activity at histamine H1 receptors [9] | antagonist activity at 5HT2C serotonin receptors [10] | effect on the reuptake of 5HT [11] | affinity for the 5HT1A receptors [12] | affinity for the 5HT1B receptors [13] | inhibition of norepinephrine reuptake [14] | antagonist activity at muscarinic cholinergic receptors [15] | food intake [16] | satiety signaling [16] | blood-brain barrier passage [17] |
| --- | --- | --- | --- | --- | --- | --- | --- | --- | --- | --- | --- | --- | --- | --- | --- | --- | --- | --- | --- |
| CN(C)CCC=C1c2ccccc2CCc2ccccc21 [amitriptyline] | 6 | 5.9 |  |  |  |  |  |  |  |  |  |  |  |  |  |  |  |  |  |
| CN1CCN2c3ncccc3Cc3ccccc3C2C1 (centres unmarked) [mirtazapine, 1,2,3,4,10,14b-hexahydro-2-methylpyrazino[2,1-a]pyrido[2,3-c]benzazepine] |  |  | no effect | moderate; also recorded: weak antagonist | potent antagonist | potent antagonist | potent antagonist | potent antagonist | does cause weight gain, sedation, and cognitive deficits | potent antagonist | potent antagonist | no effect | lacks significant affinity | lacks significant affinity | very weak inhibitor | moderate antagonist; also recorded: weak antagonist |  |  |  |
| CNCCc1ccccn1 [betahistine, 2-[2-(methylamino)ethyl]pyridine] |  |  |  |  |  |  |  |  | causes insomnia, nausea/vomiting, and weight loss |  |  |  |  |  |  |  | marginally inhibit food intake | increase the satiety signaling | crosses the blood-brain barrier |
